Test results from ChEMBL document CHEMBL1201862, “PubChem BioAssay data set” (2004).
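Following 48 hours of exposure in 96-well plates, responses at five concentrations were used to interpolate endpoints linearly. GI50 is the concentration that inhibits growth by half.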 Calls of active or inactive are those of the source. Cut-off read from the data, not from the text of the source: active = GI50 up to about 1.1 µM and inactive = higher.

Legend:
Assay in all cases: NCI anticancer screen, dose series, 48 h
[1] = tested on: HT-29
[2] = tested on: SW-620
[3] = tested on: LXFL 529
[4] = tested on: NCI-H522
[5] = tested on: HOP-92
[6] = tested on: SK-MEL-5
[7] = tested on: TK-10
[8] = tested on: SNB-19
[9] = tested on: COLO 205
[10] = tested on: ACHN
[11] = tested on: M14
[12] = tested on: SK-OV-3
[13] = tested on: SK-MEL-2
[14] = tested on: LOX IMVI
[15] = tested on: A549
[16] = tested on: HOP-62
[17] = tested on: SR

Measured: GI50

CC(=O)Nc1ccc(C(=O)NN2C(=O)C(Cl)C2c2ccccc2O)cc1 (stereo not drawn)
inactive: [1] 69 µM | [2] > 100 µM | [3] > 100 µM | [4] 36.2 µM | [5] 47.6 µM | [6] > 100 µM | [7] 51.4 µM | [8] 36.6 µM | [9] 45.2 µM | [10] > 100 µM | [11] 23.8 µM | [12] 12.9 µM | [13] 15.7 µM | [14] 13.2 µM | [15] > 100 µM | [16] 14.2 µM

CCN1CCC(O)(c2ccc(Cl)c(Cl)c2)C(C(=O)c2ccc(Cl)c(Cl)c2)C1 (stereo not drawn)
inactive: [1] 18.2 µM | [2] 19.5 µM | [3] 16.2 µM | [4] 3.71 µM | [5] 14.5 µM | [6] 16.9 µM | [7] 16.5 µM | [8] 19.7 µM | [9] 16.9 µM | [10] 13.3 µM | [11] 16.7 µM | [12] 18.2 µM | [13] 17.3 µM | [14] 17.8 µM | [15] 19.4 µM | [16] 18.3 µM

Nn1c(S)nnc1N/N=C1/C(=O)Nc2ccccc21
inactive: [1] > 100 µM | [2] 78.2 µM | [3] 39.5 µM | [4] 44.9 µM | [17] 39.6 µM | [5] 56.1 µM | [7] > 100 µM | [8] 55.2 µM | [9] > 100 µM | [10] 83.8 µM | [11] 62.1 µM | [12] 43.7 µM | [13] > 100 µM | [14] 35.4 µM | [15] 83.2 µM | [16] 64.9 µM

CCOC(=O)/C(=C/c1cccc(C#N)c1)N(CC)CC
inactive: [1] > 100 µM | [2] > 100 µM | [3] > 100 µM | [4] > 100 µM | [17] > 100 µM | [5] > 100 µM | [6] > 100 µM | [7] > 100 µM | [9] > 100 µM | [10] > 100 µM | [11] > 100 µM | [12] > 100 µM | [13] > 100 µM | [14] > 100 µM | [15] > 100 µM | [16] > 100 µM

C=CCC(O)c1cc(OC)ccc1OC (stereo not drawn)
inactive: [1] > 100 µM | [2] > 100 µM | [3] > 100 µM | [4] > 100 µM | [5] > 100 µM | [6] > 100 µM | [7] > 100 µM | [8] > 100 µM | [9] > 100 µM | [10] > 100 µM | [11] > 100 µM | [12] > 100 µM | [13] > 100 µM | [14] > 100 µM | [15] > 100 µM | [16] > 100 µM

c1ccc(CN2CCCCC(Sc3ccccc3)CC2)cc1 (stereo not drawn)
inactive: [1] 17.7 µM | [2] 1.53 µM | [3] 17.7 µM | [17] 17.8 µM | [5] 28.5 µM | [6] 18.7 µM | [7] 58.7 µM | [8] 34 µM | [9] 13.4 µM | [10] 47.3 µM | [11] 16.1 µM | [12] 58.2 µM | [13] 32.9 µM | [14] 16.5 µM | [15] 87.3 µM | [16] 64.4 µM

CCOc1ccc(/C=C2/C(=O)N=C(N)N=C2N)cc1OCC
inactive: [1] > 100 µM | [2] > 100 µM | [3] > 100 µM | [4] > 100 µM | [17] > 100 µM | [5] > 100 µM | [6] > 100 µM | [7] > 100 µM | [8] > 100 µM | [9] > 100 µM | [10] > 100 µM | [11] > 100 µM | [12] > 100 µM | [13] > 100 µM | [14] > 100 µM | [15] > 100 µM

CN(C)P(=O)(/C(N)=N/Nc1ccc([N+](=O)[O-])cc1)N(C)C
inactive: [2] > 100 µM | [3] > 100 µM | [4] 48 µM | [17] > 100 µM | [5] 41.4 µM | [6] > 100 µM | [7] > 100 µM | [8] > 100 µM | [9] > 100 µM | [10] > 100 µM | [11] > 100 µM | [13] > 100 µM | [14] > 100 µM | [15] > 100 µM | [16] > 100 µM

CC(=O)O[C@H]1CCC2[C@@H]3CCC4c5nonc5CC[C@]4(C)C3CC[C@@]21C (stereo partly drawn)
inactive: [1] > 10 µM | [2] > 10 µM | [3] > 10 µM | [4] > 10 µM | [5] > 10 µM | [6] > 10 µM | [7] > 10 µM | [8] > 10 µM | [9] > 10 µM | [10] 88.7 µM | [11] > 10 µM | [12] > 10 µM | [13] > 10 µM | [14] > 10 µM | [15] > 10 µM | [16] > 10 µM

c1cncc(C2c3[nH]c4ccccc4c3CCN2CCN2CCCCC2)c1 (stereo not drawn)
inactive: [1] > 100 µM | [2] > 100 µM | [3] > 100 µM | [4] > 100 µM | [17] > 100 µM | [5] 30 µM | [6] > 100 µM | [7] > 100 µM | [8] > 100 µM | [10] > 100 µM | [11] 16.1 µM | [12] > 100 µM | [14] > 100 µM | [15] > 100 µM | [16] > 100 µM

O=C1c2ccccc2C(=O)C2C3c4ccccc4C(c4ccccc43)C12 (stereo not drawn)
inactive: [1] 21.1 µM | [2] > 100 µM | [3] 15.3 µM | [4] 31.3 µM | [17] 14.4 µM | [7] 24.5 µM | [8] 26.9 µM | [9] 45 µM | [10] 30.6 µM | [11] 56.4 µM | [12] 24.9 µM | [14] 13.5 µM | [15] 28.7 µM | [16] 30 µM

COC(=O)c1cc2cc(OC)c(OC)cc2cc(C(=O)OC)c1=O
inactive: [1] > 100 µM | [2] 35.3 µM | [3] > 100 µM | [4] > 100 µM | [5] > 100 µM | [6] > 100 µM | [7] > 100 µM | [8] > 100 µM | [9] > 100 µM | [10] > 100 µM | [11] > 100 µM | [12] > 100 µM | [13] > 100 µM | [14] 87.3 µM | [15] > 100 µM | [16] > 100 µM

Cn1cnc([N+](=O)[O-])c1Sc1nc2cc(Cl)c(F)cc2[nH]1
inactive: [1] 14.9 µM | [2] 5.73 µM | [3] 5.7 µM | [17] 1.75 µM | [5] 13.8 µM | [6] 11.7 µM | [7] 14.5 µM | [8] 26.4 µM | [9] 6.43 µM | [10] 12.9 µM | [11] 13.5 µM | [12] 21.5 µM | [14] 16.1 µM | [15] 15.3 µM | [16] 74.5 µM
